Source: ChEMBL document CHEMBL3046243, “Synthesis, antifungal activity and SAR of N-substituted and N,N-disubstituted 2,4-dihydroxythiobenzamides” (J Pestic Sci, 2006)

Legend:
[1] = system: Rhizoctonia solani; assay: Antifungal activity against Rhizoctonia solani assessed as inhibition of mycelial growth at 200 ppm at 21 +/- 1 degC measured after 4 days; type: functional; conditions: 96 h, read-out: GI
[2] = system: Botrytis cinerea; assay: Antifungal activity against Botryotinia fuckeliana assessed as inhibition of mycelial growth at 200 ppm at 21 +/- 1 degC measured after 3 days; type: functional; conditions: 72 h, read-out: GI
[3] = system: Botrytis cinerea; assay: Antifungal activity against Botryotinia fuckeliana assessed as inhibition of mycelial growth at 20 ppm at 21 +/- 1 degC measured after 3 days; type: functional; conditions: 72 h, read-out: GI
[4] = system: Fusarium culmorum; assay: Antifungal activity against Fusarium culmorum assessed as inhibition of mycelial growth at 20 ppm at 21 +/- 1 degC measured after 5 days; type: functional; conditions: 120 h, read-out: GI
[5] = system: Phytophthora cactorum; assay: Antifungal activity against Phytophthora cactorum assessed as inhibition of mycelial growth at 20 ppm at 21 +/- 1 degC measured after 5 days; type: functional; conditions: 120 h, read-out: GI
[6] = system: Alternaria alternata; assay: Antifungal activity against Alternaria alternata assessed as inhibition of mycelial growth at 20 ppm at 21 +/- 1 degC measured after 5 days; type: functional; conditions: 120 h, read-out: GI
[7] = system: Phytophthora cactorum; assay: Antifungal activity against Phytophthora cactorum assessed as inhibition of mycelial growth at 200 ppm at 21 +/- 1 degC measured after 5 days; type: functional; conditions: 120 h, read-out: GI
[8] = Octanol-water partition coefficient, log P of the compound; type: physicochemical
[9] = Lipophilicity, log K of the compound in water; type: physicochemical; conditions: buffer
[10] = system: Alternaria alternata; assay: Antifungal activity against Alternaria alternata assessed as inhibition of mycelial growth at 200 ppm at 21 +/- 1 degC measured after 5 days; type: functional; conditions: 120 h, read-out: GI
[11] = system: Rhizoctonia solani; assay: Antifungal activity against Rhizoctonia solani assessed as inhibition of mycelial growth at 20 ppm at 21 +/- 1 degC measured after 4 days; type: functional; conditions: 96 h, read-out: GI
[12] = system: Fusarium culmorum; assay: Antifungal activity against Fusarium culmorum assessed as inhibition of mycelial growth at 200 ppm at 21 +/- 1 degC measured after 5 days; type: functional; conditions: 120 h, read-out: GI

| Compound | inhibition of growth at 200 ppm [1] | inhibition of growth at 200 ppm [2] | inhibition of growth at 20 ppm [3] | inhibition of growth at 20 ppm [4] | inhibition of growth at 20 ppm [5] | inhibition of growth at 20 ppm [6] | inhibition of growth at 200 ppm [7] | logP [8] | logKw [9] | inhibition of growth at 200 ppm [10] | inhibition of growth at 20 ppm [11] | inhibition of growth at 200 ppm [12] |
| --- | --- | --- | --- | --- | --- | --- | --- | --- | --- | --- | --- | --- |
| O=C(c1ccccc1)c1ccc(NC(=S)c2ccc(O)cc2O)cc1 | 51% | 51% | 0% | 0% | 21% | 0% | 51% | 4.12 | 4.28 | 51% | 0% | 51% |
| Oc1ccc(C(=S)N(Cc2ccccc2)c2ccccn2)c(O)c1 | 21% | 51% | 0% | 0% | 0% | 0% | 21% | 4.56 | 3.96 | 21% | 0% | 21% |
| Oc1ccc(C(=S)Nc2ccc(N3CCOCC3)cc2)c(O)c1 | 0% | 21% | 0% | 0% | 0% | 0% | 21% | 2.79 | 2.49 | 0% | 0% | 21% |
| CCN(C(=S)c1ccc(O)cc1O)c1cccc2ccccc12 | 0% | 0% | 0% | 0% | 0% | 0% | 21% | 5.03 | 5.09 | 21% | 0% | 21% |
| Cc1ccc2sc(-c3ccc(NC(=S)c4ccc(O)cc4O)cc3)nc2c1 | 0% | 0% | 0% | 0% | 0% | 0% | 0% | 3.89 | 4.87 | 21% | 0% | 21% |
| Oc1ccc(C(=S)N(c2ccccc2)c2nnns2)c(O)c1 | 81% | 81% | 51% | 21% | 21% | 51% | 81% | – | 3.3 | 81% | 21% | 81% |
| CC12CC1(C)C(=O)N(c1cc(Cl)cc(Cl)c1)C2=O (stereo not drawn) [PROCYMIDONE] | – | 81% | 81% | – | – | 81% | – | – | – | 81% | – | – |
| CCCN(CCOc1c(Cl)cc(Cl)cc1Cl)C(=O)n1ccnc1 [PROCHLORAZ] | – | – | – | 81% | 81% | 81% | 81% | – | – | 81% | – | 81% |
| Oc1ccc(C(=S)Nc2cc(C(F)(F)F)cc(C(F)(F)F)c2)c(O)c1 | 81% | 81% | 51% | 51% | 51% | 51% | 81% | 4.75 | 6.06 | 81% | 21% | 81% |
| C=C(C)c1ccccc1NC(=S)c1ccc(O)cc1O | 81% | 81% | 51% | 51% | 51% | 51% | 81% | 4.27 | 4.55 | 81% | 51% | 81% |
| Cc1cc(NC(=S)c2ccc(O)cc2O)ccc1N1C(=O)c2ccc(Cl)cc2C1=O | 0% | 0% | 0% | 0% | 0% | 0% | 0% | 4.57 | 3.63 | 21% | 0% | 21% |
| Oc1ccc(C(=S)Nc2cccc3c2CCCC3)c(O)c1 | 81% | 81% | 51% | 51% | 51% | 51% | 81% | 4.22 | 3.56 | 81% | 51% | 81% |
| O=[N+]([O-])c1cc(NC(=S)c2ccc(O)cc2O)ccc1F | 81% | 81% | 21% | 21% | 21% | 21% | 81% | 3.43 | 3.96 | 81% | 51% | 81% |
| COc1ccc(NC(=S)c2ccc(O)cc2O)cc1O | 51% | 51% | 0% | 0% | 0% | 0% | 21% | 2.39 | 2.52 | 51% | 0% | 51% |
| Oc1ccc(C(=S)Nc2ccccc2-n2cccc2)c(O)c1 | 81% | 81% | 21% | 51% | 21% | 21% | 81% | 3.29 | 3.59 | 81% | 51% | 81% |
| COC(=O)Nc1nc2ccccc2[nH]1 [CARBENDAZIM] | 81% | – | – | 81% | 81% | – | 81% | – | – | – | 81% | 81% |
| Oc1ccc(C(=S)Nc2nc(=S)ss2)c(O)c1 | 81% | 81% | 51% | 21% | 51% | 21% | 81% | 4.45 | 2.99 | 81% | 21% | 81% |
